This note sets out measurements from patent US20210301315A1, “METHODS FOR TREATING POLYMICROBIAL INFECTIONS” (priority 2017, published 2021).

“Also recorded” adds a separate entry of the source.

In one assay the test system is E. faecalis and E. coli. As to the kind of experiment: P-AST species-pair interaction on antibiotic resistance (logistic regression, HSAP/UP). Type of assay: cell-based, Enterococcus faecalis; Escherichia coli. The settings on record: E. faecalis and E. coli together v. expected from each species alone (HSAP/UP). As to the method:
(§1) The Pooled Antibiotic Sensitivity Test (P-AST) is permitting the organisms identified to grow in the presence of antibiotics and measuring the minimum concentration of antibiotic to inhibit growth. Antibiotic susceptibility testing is performed when at least a single organism within a pool of organisms reaches a certain threshold, (e.g., at least 3,000 cells/ml, at least 5,000 cells/ml, at least 10,000 cells/ml, etc.) and can grow in the presence of the antibiotic in the assay within the time of testing. (Note: 10,000 cells/ml is equivalent to 10,000 CFU/ml.) The present invention is not limited to a 10,000 cells/mL threshold. These pools of organism(s) are inoculated into growth medium then placed onto an antibiotic laden “spec plate” that is then incubated and analyzed for growth. The breakpoints are derived from the CLSI breakpoints.
(§2) P-AST was performed by aliquoting 1 mL of patient urine specimen into a 1.7 mL microcentrifuge tube. After centrifugation, the supernatant was aspirated and discarded, leaving approximately 100 or 50 μL (minimum volume left above pellet created from centrifugation) of patient sample in the microcentrifuge tube. […] Optical density of samples was then read on a DensiCHEK plate reader. […] A spectrophotometer (plate reader) is used to measure optical density of the samples in wells of antibiotics and inoculum in order to determine if there is growth in a well. […]

In assay [1] the test system is E. faecalis and K. pneumoniae. The description is as above. Type of assay: cell-based, Enterococcus faecalis; Klebsiella pneumoniae. The following applies: E. faecalis and K. pneumoniae together v. expected from each species alone (HSAP/UP). The protocol: as §1, §2
Assay [2] relates to E. faecalis and P. aeruginosa. The assay is described as above. Type of assay: cell-based, Enterococcus faecalis; Pseudomonas aeruginosa. The following applies: E. faecalis and P. aeruginosa together v. expected from each species alone (HSAP/UP). As to the method: as §1, §2
The test system of assay [3] is E. faecalis and P. mirabilis. The assay is described as above. The following applies: E. faecalis and P. mirabilis together v. expected from each species alone (HSAP/UP). Type of assay: cell-based, Enterococcus faecalis; Proteus mirabilis. As to the method: as §1, §2
Assay [4] concerns Coagulase-negative Staphylococcus (CoNS) and E. coli. The description is as above. Type of assay: cell-based, Coagulase negative staphylococci; Escherichia coli. The following applies: CoNS and E. coli together v. expected from each species alone (HSAP/UP). The protocol:
as §1, §2

The test system of assay [5] is Coagulase-negative Staphylococcus (CoNS) and K. pneumoniae. The description is as above. It counts as cell-based, Coagulase negative staphylococci; Klebsiella pneumoniae. The following applies: CoNS and K. pneumoniae together v. expected from each species alone (HSAP/UP). The protocol: as §1
(§3) P-AST was performed by aliquoting 1 mL of patient urine specimen into a 1.7 mL microcentrifuge tube. After centrifugation, the supernatant was aspirated and discarded, leaving approximately 100 or 50 μL (minimum volume left above pellet created from centrifugation) of patient sample in the microcentrifuge tube. One mL of Mueller Hinton Growth Media was then aliquoted into the patient sample in the microcentrifuge tube and the tubes were incubated at 35° C. in a non-CO2 incubator for 6 hours. Non-inoculated liquid MH-media is incubated as the negative control to confirm the media used is not contaminated. Those samples that reached a minimum threshold of 10,000 cells/mL were then diluted by aliquoting 0.5 mL of sample into a 50 mL conical tube containing Mueller Hinton Growth Media (in this example, the dilution was 1:60, e.g., 500 μL was added to 29.5 mL). 96-well plates pre-loaded with antibiotics were then inoculated with diluted samples and incubated along with control plates for 12-16 hours at 35° C. in a single layer. Optical density of samples was then read on a DensiCHEK plate reader. The DensiCHEK instrument is used to measure the concentration of turbid samples considered positive because PCR-ID result was >=10,000 cells/mL. The turbid samples were diluted/normalized to the same concentration and then added to a volume of liquid, e.g., 29.5 mL of liquid MH-media. A spectrophotometer (plate reader) is used to measure optical density of the samples in wells of antibiotics and inoculum in order to determine if there is growth in a well. The present invention is not limited to a concentration of 10,000 cells/mL.
Interactions between pairs of bacterial species were investigated using a logistic regression model to predict resistance in the presence of specific bacterial species. […]

Another assay has as its system E. coli and P. mirabilis. Described as above. Type of assay: cell-based, Escherichia coli; Proteus mirabilis. The settings on record: E. coli and P. mirabilis together v. expected from each species alone (HSAP/UP). The protocol: as §1, §3
(§4) Interactions between pairs of bacterial species were investigated using a logistic regression model to predict resistance in the presence of specific bacterial species. Bacterial species that tested positive in at least 30 samples were considered in the regression model: these 16 species were A. schaalii, A. urinae, A. omnicolens, CoNS, C. riegelii, E. faecalis, E. coli, K. oxytoca, K. pneumoniae, M. morganii, P. mirabilis, P. aeruginosa, S. aureus, S. agalactiae, U. urealyticum, VGS. Backward stepwise model selection was performed on the model with all main effects and all pairwise interactions using an enter significance level of α=0.10 and an exit significance level of α=0.05 to obtain the best fitting model. This model was used to predict resistance rates when a specific organism was present or when a specific pair of organisms were present.
(§5) Using the logistic regression model described above, the resistance rate for a pair of species was compared to the resistance rates for each species alone. […]

Assay [6] concerns E. coli and S. agalactiae. The assay is described as above. It counts as cell-based, Escherichia coli; Streptococcus agalactiae. The settings on record: E. coli and S. agalactiae together v. expected from each species alone (HSAP/UP). As to the method: as §1, §3, §4, §5
For assay [7], the system named is bacteria detected in patient urine specimens. Kind of assay: Pooled Antibiotic Susceptibility Testing (P-AST) of urine specimens, polymicrobial v. monomicrobial (logistic regression). Type of assay: cell-based. The following applies: polymicrobial urine specimens.
From the text: The present invention describes Pooled Antibiotic Susceptibility Testing (P-AST), which involves simultaneously growing all detected bacteria together in the presence of antibiotics and then measuring susceptibility. […] Urine specimens were obtained from patients presenting with UTI-like symptoms to 37 urology clinics. The odds of resistance were estimated for 18 antibiotics relative to increasing numbers of bacterial species in a specimen.
The following study combines data from two studies of antibiotic resistance patterns in elderly patients presenting with symptoms consistent with a UTI. […] All subjects met the following inclusion and exclusion criteria. Inclusion criteria included: symptoms of acute cystitis, complicated UTI, persistent UTI, recurrent UTI, prostatitis, pyelonephritis, interstitial cystitis (at any age), symptoms of other conditions at years of age, specimen volumes sufficient to permit urine culture and Multiplex Polymerase Chain Reaction (M-PCR) combined with Pooled Antibiotic Sensitivity Testing (P-AST), patient informed consented, documented times at which the specimens were collected and stabilized with boric acid in grey-top tubes. Exclusion criteria included prior participation in this study, antibiotics taken for any reason other than UTI at the time of enrollment, chronic (≥10 days) indwelling catheters, self-catheterization, and urinary diversion.
(§6) The Pooled Antibiotic Sensitivity Test (P-AST) is permitting the organisms identified to grow in the presence of antibiotics and measuring the minimum concentration of antibiotic to inhibit growth. Antibiotic susceptibility testing is performed when at least a single organism within a pool of organisms reaches a certain threshold, (e.g., at least 3,000 cells/ml, at least 5,000 cells/ml, at least 10,000 cells/ml, etc.) and can grow in the presence of the antibiotic in the assay within the time of testing. […] These pools of organism(s) are inoculated into growth medium then placed onto an antibiotic laden “spec plate” that is then incubated and analyzed for growth. The breakpoints are derived from the CLSI breakpoints.
For assay [8], the system named is Coagulase-negative Staphylococcus (CoNS) and E. faecalis. As to the kind of experiment: P-AST species-pair interaction on antibiotic resistance (logistic regression, HSAP/UP). It counts as cell-based, Coagulase negative staphylococci; Enterococcus faecalis. The settings on record: CoNS and E. faecalis together v. expected from each species alone (HSAP/UP). As to the method:
as §1, §2

The subject of assay [9] is E. faecalis and S. agalactiae. The description is as above. Type of assay: cell-based, Enterococcus faecalis; Streptococcus agalactiae. The following applies: E. faecalis and S. agalactiae together v. expected from each species alone (HSAP/UP). The protocol:
as §1, §2

Assay [10] concerns Coagulase-negative Staphylococcus (CoNS) and S. agalactiae. The settings on record: CoNS and S. agalactiae together v. expected from each species alone (HSAP/UP).
Method: as §6
P-AST was performed by aliquoting 1 mL of patient urine specimen into a 1.7 mL microcentrifuge tube. After centrifugation, the supernatant was aspirated and discarded, leaving approximately 100 or 50 μL (minimum volume left above pellet created from centrifugation) of patient sample in the microcentrifuge tube. One mL of Mueller Hinton Growth Media was then aliquoted into the patient sample in the microcentrifuge tube and the tubes were incubated at 35° C. in a non-CO2 incubator for 6 hours. […] Those samples that reached a minimum threshold of 10,000 cells/mL were then diluted by aliquoting 0.5 mL of sample into a 50 mL conical tube containing Mueller Hinton Growth Media (in this example, the dilution was 1:60, e.g., 500 μL was added to 29.5 mL). 96-well plates pre-loaded with antibiotics were then inoculated with diluted samples and incubated along with control plates for 12-16 hours at 35° C. in a single layer. Optical density of samples was then read on a DensiCHEK plate reader. The DensiCHEK instrument is used to measure the concentration of turbid samples considered positive because PCR-ID result was >=10,000 cells/mL. The turbid samples were diluted/normalized to the same concentration and then added to a volume of liquid, e.g., 29.5 mL of liquid MH-media. A spectrophotometer (plate reader) is used to measure optical density of the samples in wells of antibiotics and inoculum in order to determine if there is growth in a well.
Interactions between pairs of bacterial species were investigated using a logistic regression model to predict resistance in the presence of specific bacterial species. Bacterial species that tested positive in at least 30 samples were considered in the regression model: these 16 species were A. schaalii, A. urinae, A. omnicolens, CoNS, C. riegelii, E. faecalis, E. coli, K. oxytoca, K. pneumoniae, M. morganii, P. mirabilis, P. aeruginosa, S. aureus, S. agalactiae, U. urealyticum, VGS. […]
For another assay, the system named is E. coli and K. oxytoca. Kind of assay: P-AST species-pair interaction on antibiotic resistance (logistic regression, HSAP/UP). The settings on record: E. coli and K. oxytoca together v. expected from each species alone (HSAP/UP). It counts as cell-based, Escherichia coli; Klebsiella oxytoca. The protocol: as §1, §2

For `C[C@@H](O)[C@H]1C(=O)N2C(C(=O)O)=C(S[C@@H]3CN[C@H](C(=O)N(C)C)C3)[C@H](C)[C@H]12` [Meropenem, meropenem], the “change in antibiotic resistance of the pair of organisms” value (“change in antibiotic resistance” for short) in the assay with E. faecalis and E. coli is reported as “decrease in resistance; also recorded: decreased odds of resistance”; in assay [1], “decrease in resistance; also recorded: decreased odds of resistance”; in [2] it was “decrease in resistance; also recorded: decreased odds of resistance”; in assay [3], “decrease in resistance; also recorded: decreased odds of resistance”.
`CO/N=C(\C(=O)N[C@@H]1C(=O)N2C(C(=O)O)=C(CSc3nc(=O)c(=O)[nH]n3C)CS[C@H]12)c1csc(N)n1` [Ceftriaxone, ceftriaxone]: the “change in antibiotic resistance” value in assay [4] is listed as “decrease in resistance; also recorded: decreased probability in resistance; also recorded: decreased odds of resistance”; in [5], “decrease in resistance; also recorded: decreased odds of resistance”; in the assay with E. coli and P. mirabilis, “decrease in resistance; also recorded: decreased odds of resistance”; in assay [6], “decrease in resistance; also recorded: decreased odds of resistance”.
As to `CN[C@H](CC(C)C)C(=O)N[C@H]1C(=O)N[C@@H](CC(N)=O)C(=O)N[C@H]2C(=O)N[C@H]3C(=O)N[C@H](C(=O)N[C@H](C(=O)O)c4cc(O)cc(O)c4-c4cc3ccc4O)[C@H](O)c3ccc(c(Cl)c3)Oc3cc2cc(c3O[C@@H]2O[C@H](CO)[C@@H](O)[C@H](O)[C@H]2O[C@H]2C[C@](C)(N)[C@H](O)[C@H](C)O2)Oc2ccc(cc2Cl)[C@H]1O` [Vancomycin, vancomycin], the “odds of resistance for each additional species identified (in words)” value in [7] was “increased”. The “change in antibiotic resistance” value in assay [8], in assay [9] and in assay [10] was “decrease in resistance; also recorded: decreased odds of resistance” each time.
In the case of `CC1(C)S[C@@H]2[C@H](NC(=O)[C@H](N)c3ccccc3)C(=O)N2[C@H]1C(=O)O` [Ampicillin, ampicillin], the “odds of resistance for each additional species identified (in words)” value in assay [7] is recorded as “increased”. The results for the “change in antibiotic resistance” value in assay [5], in [6] and in assay [9] were “reduced resistance”, “decrease in resistance; also recorded: decreased odds of resistance” and “decrease in resistance; also recorded: decreased odds of resistance”, respectively.
On to `O=C(O)c1cn(C2CC2)c2cc(N3CCNCC3)c(F)cc2c1=O` [Ciprofloxacin, ciprofloxacin], for which the “change in antibiotic resistance” value in assay [5] is recorded as “decrease in resistance; also recorded: decreased odds of resistance”; with E. coli and K. oxytoca, “decrease in resistance; also recorded: decreased odds of resistance”; in [6], “decrease in resistance; also recorded: decreased odds of resistance”.
Turning to `CO[C@@]1(NC(=O)Cc2cccs2)C(=O)N2C(C(=O)O)=C(COC(N)=O)CS[C@@H]21` [Cefoxitin, cefoxitin], the “change in antibiotic resistance” value with E. coli and P. mirabilis was “decrease in resistance; also recorded: decreased odds of resistance”.
